Drawing on ChEMBL document CHEMBL5390265, “Design, Synthesis, and Pharmacological Evaluation of Multisubstituted Pyrido[4,3-d]pyrimidine Analogues Bearing Deuterated Methylene Linkers as Potent KRASG12D Inhibitors” (J Med Chem, 2023), this text covers inhibition and Activity for one compound.

Activity calls are given as the source filed them. The rule behind the calls is not given here. Bounds are passed on as bounds.

For experiment [1], the target named is T1, GTPase KRas (Homo sapiens, UniProt P01116). The experiment in a line: Inhibition of KRAS in human AGS cells assessed as downregulation of ERK phosphorylation incubated for 3 hrs by immunoblotting analysis. Type of experiment: cell-based. Conditions: tested as the 2H-labelled form. Background: Immunoblotting shows a protein as a band on a membrane.
Experiment [2] concerns the target T1, GTPase KRas. Description: Inhibition of KRAS in human ASPC1 cells assessed as downregulation of AKT phosphorylation at 0.65 nM incubated for 3 hrs by immunoblotting analysis. In kind it is cell-based. Conditions: tested as the 2H-labelled form.
The test system of experiment [3] is ASPC1. The experiment in a line: Antitumor activity against human ASPC1 cells xenografted in mouse assessed as inhibition of ERK phosphorylation level at 20 mg/kg,ip administrated twice daily for 20 consecutive days by immunoblotting analysis. In kind it is functional, organism-based. Conditions: tested as the 2H-labelled form. For orientation: In xenograft studies the graft and the host belong to different species.

For experiment [4], the system named is ASPC1. Description: Antitumor activity against human ASPC1 cells xenografted in mouse assessed as inhibition of Ki-67 expression level at 20 mg/kg,ip administrated twice daily for 20 consecutive days by immunohistochemistry analysis. In kind it is functional, organism-based. Conditions: tested as the 2H-labelled form.
For experiment [5], the target named is T1, GTPase KRas. The experiment in a line: Inhibition of KRAS in human ASPC1 cells assessed as downregulation of ERK phosphorylation at 6.25 to 100 nM incubated for 3 hrs by immunoblotting analysis. In kind it is cell-based. Conditions: dose 6.25-100 nM, tested as the 2H-labelled form.
Experiment [6] addresses T1, GTPase KRas. Description: Inhibition of KRAS in human AGS cells assessed as downregulation of AKT phosphorylation incubated for 3 hrs by immunoblotting analysis. Type of experiment: cell-based. Conditions: tested as the 2H-labelled form.
Experiment [7] deals with ASPC1. Description: Antitumor activity against human ASPC1 cells xenografted in mouse assessed as inhibition of AKT phosphorylation level at 10 mg/kg,ip administrated twice daily for 20 consecutive days by immunoblotting analysis. Type of experiment: functional, organism-based. Conditions: tested as the 2H-labelled form.
In experiment [8] the target is T1, GTPase KRas. The experiment in a line: Inhibition of KRAS in human ASPC1 cells assessed as downregulation of AKT phosphorylation incubated for 3 hrs by immunoblotting analysis. Type of experiment: cell-based. Conditions: tested as the 2H-labelled form.
Experiment [9] addresses T1, GTPase KRas. The experiment in a line: Inhibition of KRAS in human AGS cells assessed as downregulation of ERK phosphorylation at 0.65 nM incubated for 3 hrs by immunoblotting analysis. In kind it is cell-based. Conditions: tested as the 2H-labelled form.
Experiment [10] concerns the target T1, GTPase KRas. Description: Inhibition of KRAS in human ASPC1 cells assessed as downregulation of ERK phosphorylation at 0.65 nM incubated for 3 hrs by immunoblotting analysis. Type of experiment: cell-based. Conditions: tested as the 2H-labelled form.
Experiment [11] deals with ASPC1. Description: Antitumor activity against human ASPC1 cells xenografted in mouse assessed as inhibition of AKT phosphorylation level at 20 mg/kg,ip administrated twice daily for 20 consecutive days by immunoblotting analysis. Conditions: tested as the 2H-labelled form. Type of experiment: functional, organism-based.
Experiment [12] has as its system ASPC1. Description: Antitumor activity against human ASPC1 cells xenografted in mouse assessed as inhibition of Ki-67 expression level at 10 mg/kg,ip administrated twice daily for 20 consecutive days by immunohistochemistry analysis. In kind it is functional, organism-based. Conditions: tested as the 2H-labelled form.
In experiment [13] the target is T1, GTPase KRas. The experiment in a line: Inhibition of KRAS in human ASPC1 cells assessed as downregulation of ERK phosphorylation incubated for 3 hrs by immunoblotting analysis. In kind it is cell-based. Conditions: tested as the 2H-labelled form.
Experiment [14] concerns the target T1, GTPase KRas. The experiment in a line: Inhibition of KRAS in human AGS cells assessed as downregulation of AKT phosphorylation at 0.65 nM incubated for 3 hrs by immunoblotting analysis. Type of experiment: cell-based. Conditions: tested as the 2H-labelled form.
Experiment [15] has as its system ASPC1. Description: Antitumor activity against human ASPC1 cells xenografted in mouse assessed as inhibition of ERK phosphorylation level at 10 mg/kg,ip administrated twice daily for 20 consecutive days by immunoblotting analysis. Conditions: tested as the 2H-labelled form. In kind it is functional, organism-based.

T1 sequence (P01116 whole entry, looked up): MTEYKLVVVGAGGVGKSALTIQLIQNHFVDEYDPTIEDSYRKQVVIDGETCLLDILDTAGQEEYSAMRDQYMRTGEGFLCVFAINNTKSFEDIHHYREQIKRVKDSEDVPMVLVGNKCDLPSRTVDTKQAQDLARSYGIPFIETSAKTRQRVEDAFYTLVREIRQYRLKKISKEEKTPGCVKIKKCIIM

For `C#Cc1c(F)ccc2cc(O)cc(-c3ncc4c(N5C[C@H]6CC[C@@H](C5)N6)nc(OCC56CCCN5CC(=C(F)F)C6)nc4c3F)c12` (stereo not given in full), the inhibition (in general, how much of the control response was suppressed) is “Dose-Dependent Effect” at GTPase KRas [1]; above 90% on GTPase KRas [5]; “Dose-Dependent Effect” on GTPase KRas [6]; “Dose-Dependent Effect” on GTPase KRas [8]; “Dose-Dependent Effect” at GTPase KRas [13]. The inhibition entry on GTPase KRas [2], on GTPase KRas [9], on GTPase KRas [10] and on GTPase KRas [14] was “Active” each time. Moreover, the result in the experiment on ASPC1 [3], in the experiment on ASPC1 [4], in the experiment on ASPC1 [7], in the experiment on ASPC1 [11], in the experiment on ASPC1 [12] and with ASPC1 [15] was Active.
